Data from paper PMC10914731, “Homo-BacPROTAC-induced degradation of ClpC1 as a strategy against drug-resistant mycobacteria” (Nature Communications, 2024).
Several values for one entry are separate records, joined by “and”; a condition that tells them apart may be missing. Identical values can stand only once. Like-named read-outs stand apart in the source and are kept apart here.

Assays:
Mtb # 11291 = experiment: microbe, parasite or virus in culture; format: cell-based; conditions: for MIC: read-out: MIC Mtb # 11291
Msm #607 = experiment: Minimum bactericidal concentration (MBC), Msm #607; format: cell-based, Mycobacterium smegmatis; conditions: for MBC: Mycolicibacterium smegmatis
in vivo = format: in vivo, BALB/cAnNCrl mice; conditions: mouse, in vivo, iv
Procedure, shortened: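 Male BALB/c mice (9 weeks, n = 3 per route) received a bolus of 1 mg/kg iv or 30 mg/kg po; blood was sampled from 0.1 (iv) or 0.25 (po) h to 24 h. Plasma was protein-precipitated with ACN and quantified by UPLC-MS/MS. LogD given as chromLogD7.5, from C18 retention calibrated against n-alkan-2-ones.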

Pseudomonas aeruginosa = experiment: MIC ESKAPES panel, Pseudomonas aeruginosa; format: cell-based
Procedure, shortened: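 CLSI broth microdilution was run in Mueller Hinton broth with an inoculum of 3–7 × 10^5 cfu/ml at 37 °C. Turbidity was read on day 2; clear wells indicated growth inhibition.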

[1] = test system: Mtb H37Rv in THP-1 macrophages; experiment: Intracellular MIC assay in THP-1 macrophages; format: cell-based, Mycobacterium tuberculosis; parameters: Emax: unit not given here
[2] = Hepatocyte stability, mice; format: in vitro ADME; conditions: mouse, pH 7.4
Procedure, shortened: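 Parent depletion by HPLC-MS/MS in mouse hepatocyte suspension (50% serum, ~1 million cells/mL) with 1 µM compound over up to 6 h at 37 °C. Half-lives were scaled to % Qh using the well-stirred liver model.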

[3] = target: endogenous ClpC1 in Msm #607 cells (Mycolicibacterium smegmatis, UniProt A0R574); format: cell-based, M. smegmatis
[4] = single well replicates, listed as 12 (UdSBI-4377)

Chain of endogenous ClpC1 in Msm #607 cells (A0R574 whole entry): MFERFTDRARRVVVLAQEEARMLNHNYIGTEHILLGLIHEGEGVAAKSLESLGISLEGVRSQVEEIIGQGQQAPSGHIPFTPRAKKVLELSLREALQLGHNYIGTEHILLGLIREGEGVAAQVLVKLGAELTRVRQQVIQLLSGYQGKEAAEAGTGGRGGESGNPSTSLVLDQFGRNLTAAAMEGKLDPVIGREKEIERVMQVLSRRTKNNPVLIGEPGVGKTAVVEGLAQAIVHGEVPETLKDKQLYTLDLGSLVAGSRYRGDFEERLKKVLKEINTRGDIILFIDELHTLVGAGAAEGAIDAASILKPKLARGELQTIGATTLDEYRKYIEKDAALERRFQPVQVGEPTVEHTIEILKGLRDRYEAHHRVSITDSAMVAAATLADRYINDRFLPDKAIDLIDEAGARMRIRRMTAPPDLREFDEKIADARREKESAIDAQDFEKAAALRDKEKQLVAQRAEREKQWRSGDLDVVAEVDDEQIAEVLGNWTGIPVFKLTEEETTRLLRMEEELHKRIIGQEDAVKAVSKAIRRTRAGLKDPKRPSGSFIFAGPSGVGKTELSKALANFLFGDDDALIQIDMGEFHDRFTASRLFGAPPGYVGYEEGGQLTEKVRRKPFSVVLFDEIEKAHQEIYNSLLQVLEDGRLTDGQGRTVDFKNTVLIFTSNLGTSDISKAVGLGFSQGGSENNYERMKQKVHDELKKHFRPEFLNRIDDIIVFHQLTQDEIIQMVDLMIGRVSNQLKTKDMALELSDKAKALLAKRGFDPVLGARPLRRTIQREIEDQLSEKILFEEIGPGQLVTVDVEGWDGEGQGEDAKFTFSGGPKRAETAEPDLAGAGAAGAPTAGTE

COC(c1ccccc1)C1NC(=O)C(C)NC(=O)C(CC(C)CO)N(C)C(=O)C(Cc2cn(C)c3ccccc23)NC(=O)C(Cc2cn(CCCCCn3cc(CC4NC(=O)C(CC(C)C)N(C)C(=O)C(C(C)C)NC(=O)C(C(OC)c5ccccc5)NC(=O)C(C)NC(=O)C(CC(C)CO)N(C)C(=O)C(Cc5cn(C)c6ccccc56)NC4=O)nn3)nn2)NC(=O)C(CC(C)C)N(C)C(=O)C(C(C)C)NC1=O (centres unmarked) [Compound 12]
MIC (Mtb # 11291; Mycobacterium tuberculosis, mean, n = 2 well replicates): < 0.1 µM and < 0.2 µg/mL | MIC (Mtb # 11291; Mycobacterium tuberculosis, single well replicates): < 0.1 µM and < 0.19 µg/mL | MIC Mtb # 11291 (Mtb # 11291; [4]): <0.19 µg/mL | MIC (Mtb # 11291; [4]): <0.1 µM | colony growth after replating (MBC assay) (Msm #607): growth of colonies could be observed across all tested concentrations | MBC (Msm #607; ATCC607, read-out: MBC (from Set 3) Msm ATCC 607): > 99 µg/mL and > 50 µM | MBC (Msm #607; read-out: MBC Msm #607): > 50 µM and > 99 µg/mL | Cl (in vivo; male, BALB/cAnNCrl, 1 mg/kg): 4.14 mL/min/kg | T1/2 (in vivo; male, BALB/cAnNCrl, 1 mg/kg): 1.37 h | VSS (in vivo; male, BALB/cAnNCrl, 1 mg/kg): 0.42 L/kg | AUC (in vivo): 3870 h nM/(nmol kg-1) | Cmax (in vivo): 3270 nM/(nmol kg-1) | Plasma concentration 24 h (in vivo): BLOQ | MIC (Pseudomonas aeruginosa; Gram-Negative Bacteria, replicates 1-3, listed as 12 (UdSBI-4377)): >50 µM | MIC (Pseudomonas aeruginosa; Pseudomonas aeruginosa, Gram negative, n = 3 well replicates): > 50 µM | MIC (Pseudomonas aeruginosa; Pseudomonas aeruginosa, Gram-Negative Bacteria, replicates 1-3): > 99 µg/mL | Emax [1]: 0.28 | Hepatocyte Mice [2]: 15 %Qh | DC50 ([3]; read-out: DC50, Mean): 170 nM | DC50 ([3]; read-out: average DC50, endogenous ClpC1 degradation): 170 ± 100 nM
